In ChEMBL document CHEMBL4665624, “Synthesis of 5-(4-(1H-phenanthro[9,10-d]imidazol-2-yl)benzylidene)thiazolidine-2,4-dione as promising DNA and serum albumin-binding agents and evaluation of antitumor activity” (Eur J Med Chem, 2019):

How the values were obtained:
RXF 393 = test: Antitumor activity against human RXF 393 cells assessed as cell growth inhibition at 10 uM incubated for 48 hrs by sulforhodamine B assay; assay type: functional; settings: read-out: GI
OVCAR-4 = test: Antitumor activity against human OVCAR-4 cells assessed as cell growth inhibition at 10 uM incubated for 48 hrs by sulforhodamine B assay; assay type: functional; settings: read-out: GI
SNB-75 = test: Antitumor activity against human SNB-75 cells assessed as cell growth inhibition at 10 uM incubated for 48 hrs by sulforhodamine B assay; assay type: functional; settings: read-out: GI
SN12C = test: Antitumor activity against human SN12C cells assessed as cell growth inhibition at 10 uM incubated for 48 hrs by sulforhodamine B assay; assay type: functional; settings: read-out: GI
HCT-15 = test: Antitumor activity against human HCT15 cells assessed as cell growth inhibition at 10 uM incubated for 48 hrs by sulforhodamine B assay; assay type: functional; settings: read-out: GI
MDA-MB-231 = test: Antitumor activity against human MDA-MB-231/ATCC cells assessed as cell growth inhibition at 10 uM incubated for 48 hrs by sulforhodamine B assay; assay type: functional; settings: read-out: GI
EKVX = test: Antitumor activity against human EKVX cells assessed as cell growth inhibition at 10 uM incubated for 48 hrs by sulforhodamine B assay; assay type: functional; settings: read-out: GI
U-251 = test: Antitumor activity against human U251 cells assessed as cell growth inhibition at 10 uM incubated for 48 hrs by sulforhodamine B assay; assay type: functional; settings: read-out: GI
PC-3 = test: Antitumor activity against human PC-3 cells assessed as cell growth inhibition at 10 uM incubated for 48 hrs by sulforhodamine B assay; assay type: functional; settings: read-out: GI
IGROV-1 = test: Antitumor activity against human IGROV1 cells assessed as cell growth inhibition at 10 uM incubated for 48 hrs by sulforhodamine B assay; assay type: functional; settings: read-out: GI
CCRF-CEM = test: Antitumor activity against human CCRF-CEM cells assessed as cell growth inhibition at 10 uM incubated for 48 hrs by sulforhodamine B assay; assay type: functional; settings: read-out: GI
SW-620 = test: Antitumor activity against human SW620 cells assessed as cell growth inhibition at 10 uM incubated for 48 hrs by sulforhodamine B assay; settings: SW-620, 48 h, read-out: GI
OVCAR-3 = test: Antitumor activity against human OVCAR-3 cells assessed as cell growth inhibition at 10 uM incubated for 48 hrs by sulforhodamine B assay; assay type: functional; settings: read-out: GI
MDA-MB-468 = test: Antitumor activity against human MDA-MB-468 cells assessed as cell growth inhibition at 10 uM incubated for 48 hrs by sulforhodamine B assay; assay type: functional; settings: read-out: GI
NCI-H522 = test: Antitumor activity against human NCI-H522 cells assessed as cell growth inhibition at 10 uM incubated for 48 hrs by sulforhodamine B assay; assay type: functional; settings: read-out: GI
SK-OV-3 = test: Antitumor activity against human SK-OV-3 cells assessed as cell growth inhibition at 10 uM incubated for 48 hrs by sulforhodamine B assay; assay type: functional; settings: read-out: GI
COLO 205 = test: Antitumor activity against human COLO205 cells assessed as cell growth inhibition at 10 uM incubated for 48 hrs by sulforhodamine B assay; assay type: functional; settings: read-out: GI
UACC-62 = test: Antitumor activity against human UACC-62 cells assessed as cell growth inhibition at 10 uM incubated for 48 hrs by sulforhodamine B assay; assay type: functional; settings: read-out: GI
MCF7 = test: Antitumor activity against human MCF7 cells assessed as cell growth inhibition at 10 uM incubated for 48 hrs by sulforhodamine B assay; assay type: functional; settings: read-out: GI
HT-29 = test: Antitumor activity against human HT-29 cells assessed as cell growth inhibition at 10 uM incubated for 48 hrs by sulforhodamine B assay; assay type: functional; settings: read-out: GI
HOP-92 = test: Antitumor activity against human HOP92 cells assessed as cell growth inhibition at 10 uM incubated for 48 hrs by sulforhodamine B assay; assay type: functional; settings: read-out: GI
Malme-3M = test: Antitumor activity against human MALME-3M cells assessed as cell growth inhibition at 10 uM incubated for 48 hrs by sulforhodamine B assay; assay type: functional; settings: read-out: GI
KM12 = test: Antitumor activity against human KM12 cells assessed as cell growth inhibition at 10 uM incubated for 48 hrs by sulforhodamine B assay; assay type: functional; settings: read-out: GI
NCI-H226 = test: Antitumor activity against human NCI-H226 assessed as cell growth inhibition at 10 uM incubated for 48 hrs by sulforhodamine B assay; assay type: functional; settings: read-out: GI
Hs-578T = test: Antitumor activity against human HS 578T cells assessed as cell growth inhibition at 10 uM incubated for 48 hrs by sulforhodamine B assay; assay type: functional; settings: read-out: GI
K562 = test: Antitumor activity against human K562 cells assessed as cell growth inhibition at 10 uM incubated for 48 hrs by sulforhodamine B assay; assay type: functional; settings: read-out: GI
NCI/ADR-RES = test: Antitumor activity against human NCI/ADR-RES cells assessed as cell growth inhibition at 10 uM incubated for 48 hrs by sulforhodamine B assay; assay type: functional; settings: read-out: GI
786-0 = test: Antitumor activity against human 786-0 cells assessed as cell growth inhibition at 10 uM incubated for 48 hrs by sulforhodamine B assay; assay type: functional; settings: read-out: GI
RPMI-8226 = test: Antitumor activity against human RPMI8226 cells assessed as cell growth inhibition at 10 uM incubated for 48 hrs by sulforhodamine B assay; assay type: functional; settings: read-out: GI
ACHN = test: Antitumor activity against human ACHN cells assessed as cell growth inhibition at 10 uM incubated for 48 hrs by sulforhodamine B assay; assay type: functional; settings: read-out: GI
NCI-H460 = test: Antitumor activity against human NCI-H460 assessed as cell growth inhibition at 10 uM incubated for 48 hrs by sulforhodamine B assay; assay type: functional; settings: read-out: GI
HL-60(TB) = test: Antitumor activity against human HL-60(TB) cells assessed as cell growth inhibition at 10 uM incubated for 48 hrs by sulforhodamine B assay; assay type: functional; settings: read-out: GI
LOX IMVI = test: Antitumor activity against human LOX IMVI cells assessed as cell growth inhibition at 10 uM incubated for 48 hrs by sulforhodamine B assay; assay type: functional; settings: read-out: GI
M14 = test: Antitumor activity against human M14 cells assessed as cell growth inhibition at 10 uM incubated for 48 hrs by sulforhodamine B assay; assay type: functional; settings: read-out: GI
SF-295 = test: Antitumor activity against human SF295 cells assessed as cell growth inhibition at 10 uM incubated for 48 hrs by sulforhodamine B assay; assay type: functional; settings: read-out: GI
MOLT-4 = test: Antitumor activity against human MOLT4 cells assessed as cell growth inhibition at 10 uM incubated for 48 hrs by sulforhodamine B assay; assay type: functional; settings: read-out: GI
SF-268 = test: Antitumor activity against human SF268 cells assessed as cell growth inhibition at 10 uM incubated for 48 hrs by sulforhodamine B assay; assay type: functional; settings: read-out: GI
HCT-116 = test: Antitumor activity against human HCT116 cells assessed as cell growth inhibition at 10 uM incubated for 48 hrs by sulforhodamine B assay; assay type: functional; settings: read-out: GI
SK-MEL-28 = test: Antitumor activity against human SK-MEL-28 cells assessed as cell growth inhibition at 10 uM incubated for 48 hrs by sulforhodamine B assay; assay type: functional; settings: read-out: GI
SNB-19 = test: Antitumor activity against human SNB-19 cells assessed as cell growth inhibition at 10 uM incubated for 48 hrs by sulforhodamine B assay; assay type: functional; settings: read-out: GI
BT-549 = test: Antitumor activity against human BT-549 cells assessed as cell growth inhibition at 10 uM incubated for 48 hrs by sulforhodamine B assay; assay type: functional; settings: read-out: GI
UO-31 = test: Antitumor activity against human UO-31 cells assessed as cell growth inhibition at 10 uM incubated for 48 hrs by sulforhodamine B assay; assay type: functional; settings: read-out: GI
NCI-H23 = test: Antitumor activity against human NCI-H23 cells assessed as cell growth inhibition at 10 uM incubated for 48 hrs by sulforhodamine B assay; assay type: functional; settings: read-out: GI
MDA-MB-435 = test: Antitumor activity against human MDA-MB-435 cells assessed as cell growth inhibition at 10 uM incubated for 48 hrs by sulforhodamine B assay; assay type: functional; settings: read-out: GI
OVCAR-8 = test: Antitumor activity against human OVCAR-8 cells assessed as cell growth inhibition at 10 uM incubated for 48 hrs by sulforhodamine B assay; assay type: functional; settings: read-out: GI
A498 = test: Antitumor activity against human A498 cells assessed as cell growth inhibition at 10 uM incubated for 48 hrs by sulforhodamine B assay; assay type: functional; settings: read-out: GI
HCC 2998 = test: Antitumor activity against human HCC2998 cells assessed as cell growth inhibition at 10 uM incubated for 48 hrs by sulforhodamine B assay; assay type: functional; settings: read-out: GI
SR = test: Antitumor activity against human SR cells assessed as cell growth inhibition at 10 uM incubated for 48 hrs by sulforhodamine B assay; assay type: functional; settings: read-out: GI

O=Cc1ccc(-c2nc3c([nH]2)-c2cccc4cccc-3c24)cc1
inhibition of growth at 10 µM (RXF 393): < 10%
inhibition of growth at 10 µM (OVCAR-4): 27.4%
inhibition of growth at 10 µM (SNB-75): < 10%
inhibition of growth at 10 µM (SN12C): < 10%
inhibition of growth at 10 µM (HCT-15): 23.7%
inhibition of growth at 10 µM (MDA-MB-231): 25.6%
inhibition of growth at 10 µM (EKVX): 23%
inhibition of growth at 10 µM (U-251): < 10%
inhibition of growth at 10 µM (PC-3): 21.1%
inhibition of growth at 10 µM (IGROV-1): 28.9%
inhibition of growth at 10 µM (CCRF-CEM): 11.1%
inhibition of growth at 10 µM (SW-620): < 10%
inhibition of growth at 10 µM (OVCAR-3): 12.3%
inhibition of growth at 10 µM (MDA-MB-468): 30.9%
inhibition of growth at 10 µM (NCI-H522): < 10%
inhibition of growth at 10 µM (SK-OV-3): < 10%
inhibition of growth at 10 µM (COLO 205): < 10%
inhibition of growth at 10 µM (UACC-62): 19.8%
inhibition of growth at 10 µM (MCF7): 51.6%
inhibition of growth at 10 µM (HT-29): < 10%
inhibition of growth at 10 µM (HOP-92): 14%
inhibition of growth at 10 µM (Malme-3M): < 10%
inhibition of growth at 10 µM (KM12): 13%
inhibition of growth at 10 µM (NCI-H226): 12.4%
inhibition of growth at 10 µM (Hs-578T): < 10%
inhibition of growth at 10 µM (K562): 16.5%
inhibition of growth at 10 µM (NCI/ADR-RES): < 10%
inhibition of growth at 10 µM (786-0): < 10%
inhibition of growth at 10 µM (RPMI-8226): 22.8%
inhibition of growth at 10 µM (ACHN): < 10%
inhibition of growth at 10 µM (NCI-H460): 23.6%
inhibition of growth at 10 µM (HL-60(TB)): < 10%
inhibition of growth at 10 µM (LOX IMVI): 25.8%
inhibition of growth at 10 µM (M14): < 10%
inhibition of growth at 10 µM (SF-295): < 10%
inhibition of growth at 10 µM (MOLT-4): 20.5%
inhibition of growth at 10 µM (SF-268): 13.3%
inhibition of growth at 10 µM (HCT-116): 19.2%
inhibition of growth at 10 µM (SK-MEL-28): < 10%
inhibition of growth at 10 µM (SNB-19): < 10%
inhibition of growth at 10 µM (BT-549): < 10%
inhibition of growth at 10 µM (UO-31): 33.4%
inhibition of growth at 10 µM (NCI-H23): 14.9%
inhibition of growth at 10 µM (MDA-MB-435): < 10%
inhibition of growth at 10 µM (OVCAR-8): < 10%
inhibition of growth at 10 µM (A498): < 10%
inhibition of growth at 10 µM (HCC 2998): 12.8%
inhibition of growth at 10 µM (SR): 16%
